Data reported in patent publication US20250197864A1, “LNCRNA TRANSCRIPTS IN MELANOMAGENESIS” (The Regents of the University of California, priority 2021, published 2025).

Tested on: gene expression in D04 melanoma cells
Experiment: RNA-Seq differential expression analysis (DESeq2)
Assay type: cell-based, human
Experimental: Total RNA was isolated using the RNeasy mini Kit (QIAGEN) following the manufacturer's protocol. Quality check for extracted RNA was done using 2100 Bioanalyzer (Agilent Technologies, USA) or Tapestation System (Agilent Technologies, USA). […] For samples used for identification of MAPK-responsive lncRNAs, paired-end, 101-bp sequencing was performed by Centrillion Genomic Services (Centrillion Biosciences, USA) on an Illumina HiSeq 2000. For DE gene analysis of ASO-transfected D04 samples, paired-end, 2×150-bp sequencing was performed by Genewiz (USA) on a Illumina HiSeq.
Sequence reads were aligned to the human genome (hg19) using TopHat (Version 2.0.11).
Differential expression (DE) analysis was done using DESeq2. Differentially expressed genes were defined by more than 1.5-fold changes (log 2 >0.58 or <−0.58) in expression with FDR<0.05. GO term analysis was done using DAVID Functional Annotation Clustering analysis.
To examine the biomolecular changes upon TRASH-inhibition in melanoma, D04 cells were treated with TRASH-ASOs (SEQ ID NO:15) and Control-ASOs and RNA was extracted and used for RNA-Seq. […] These GO terms consisted of genes encoding growth factors, tyrosine kinases, G protein coupled receptor subunits, and collagen subunits. Scatter plot diagram showing differential gene expression after TRASH-ASO treatment compared to Control-ASO treatment. (cut-off for significance was adjusted p-value <0.05). Data was obtained from RNA-Seq of D04 melanoma cells, treatment period was three days. (FIG. 5c)

“GACTGGAGATAATTAA (gapmer, pattern not given here) [SEQ ID NO: 15, GapmeR ASO targeting AC004540.4 (TRASH), exon region of both isoforms; used for in vitro experiments]” gave a log2FoldChange (44256 (ENSG00000186205)) of 1.274, a log2FoldChange (44259 (ENSG00000144583)) of 2.095 and a log2FoldChange (A2M (ENSG00000175899)) of −0.6461. It also gave a log2FoldChange (AADACP1 (ENSG00000240602)) of 1.744, a log2FoldChange (AAGAB (ENSG00000103591)) of −0.6248 and a log2FoldChange (AAMDC (ENSG00000087884)) of −0.6077. It also gave a log2FoldChange (ABCA7 (ENSG00000064687)) of −0.6185, a log2FoldChange (AC004817.3 (ENSG00000269927)) of 1.303 and a log2FoldChange (AC004949.1 (ENSG00000283117)) of −0.6056. It also gave a log2FoldChange (AC005144.1 (ENSG00000283517)) of 1.578, a log2FoldChange (AC006058.1 (ENSG00000261786)) of −0.7044 and a log2FoldChange (AC009502.2 (ENSG00000231802)) of 1.847. It also gave a log2FoldChange (AC010735.1 (ENSG00000261379)) of −0.6617, a log2FoldChange (AC010735.2 (ENSG00000272622)) of −0.6927 and a log2FoldChange (AC011944.1 (ENSG00000177699)) of 1.481. It also gave a log2FoldChange (AC022007.1 (ENSG00000206567)) of −0.6327, a log2FoldChange (AC022031.2 (ENSG00000267284)) of −0.6353 and a log2FoldChange (AC048341.1 (ENSG00000257354)) of −0.6321. It also gave a log2FoldChange (AC073130.1 (ENSG00000237870)) of 1.474, a log2FoldChange (AC090192.2 (ENSG00000253227)) of 1.561 and a log2FoldChange (AC090204.1 (ENSG00000247134)) of −0.6895. For the same sequence, the log2FoldChange (AC090505.1 (ENSG00000234805)) was 1.656, the log2FoldChange (AC099552.1 (ENSG00000217825)) was 2.619 and the log2FoldChange (AC105942.1 (ENSG00000235501)) was −0.6072. For the same sequence, the log2FoldChange (AC117386.2 (ENSG00000243944)) was −0.661, the log2FoldChange (AC131254.1 (ENSG00000248964)) was 2 and the log2FoldChange (AC133785.1 (ENSG00000233221)) was 1.627. It also gave a log2FoldChange (AC135782.1 (ENSG00000256982)) of 1.563, a log2FoldChange (AC139491.2 (ENSG00000248596)) of 1.322 and a log2FoldChange (AC237221.1 (ENSG00000260653)) of 1.665. It also gave a log2FoldChange (AC245041.1 (ENSG00000273760)) of 1.261, a log2FoldChange (ACTBL2 (ENSG00000169067)) of −0.6731 and a log2FoldChange (ACTR3C (ENSG00000106526)) of −0.7012. For the same sequence, the log2FoldChange (ADCYAP1R1 (ENSG00000078549)) was 2.87, the log2FoldChange (ADGRA2 (ENSG00000020181)) was −0.7029 and the log2FoldChange (ADGRB1 (ENSG00000181790)) was 1.472. It also gave a log2FoldChange (ADGRE4P (ENSG00000268758)) of 1.451, a log2FoldChange (ADPRHL1 (ENSG00000153531)) of 3.706 and a log2FoldChange (ADRB2 (ENSG00000169252)) of 1.354. The log2FoldChange (AHNAK2 (ENSG00000185567)) was 1.379, the log2FoldChange (AHR (ENSG00000106546)) was −0.6391 and the log2FoldChange (AKNAD1 (ENSG00000162641)) was 1.238. It also gave a log2FoldChange (AL161431.1 (ENSG00000275216)) of 1.631, a log2FoldChange (AL356234.3 (ENSG00000283265)) of 2.668 and a log2FoldChange (AL365181.2 (ENSG00000272068)) of 1.422. It also gave a log2FoldChange (AL390334.1 (ENSG00000258932)) of −0.6259, a log2FoldChange (AL512488.1 (ENSG00000230439)) of 1.824 and a log2FoldChange (AL590004.4 (ENSG00000260604)) of 1.853. The log2FoldChange (ALMS1-IT1 (ENSG00000230002)) was 1.247, the log2FoldChange (ALOXE3 (ENSG00000179148)) was 4.94 and the log2FoldChange (ALPI (ENSG00000163295)) was 7.153. The log2FoldChange (ANKH (ENSG00000154122)) was −0.6414, the log2FoldChange (ANO2 (ENSG00000047617)) was 2.643 and the log2FoldChange (ANXA8 (ENSG00000265190)) was 1.513. The log2FoldChange (ANXA8L1 (ENSG00000264230)) was 1.299, the log2FoldChange (APOA4 (ENSG00000110244)) was 7.547 and the log2FoldChange (APOE (ENSG00000130203)) was −0.6001. The log2FoldChange (AQP1 (ENSG00000240583)) was −0.6784, the log2FoldChange (ARC (ENSG00000198576)) was 1.257 and the log2FoldChange (ARHGDIB (ENSG00000111348)) was 1.501. For the same sequence, the log2FoldChange (ARSA (ENSG00000100299)) was −0.6363, the log2FoldChange (ATG9B (ENSG00000181652)) was 1.674 and the log2FoldChange (ATP2B2 (ENSG00000157087)) was 2.6809. The log2FoldChange (B3GALT5 (ENSG00000183778)) was 3.38, the log2FoldChange (B4GALNT3 (ENSG00000139044)) was −0.6558 and the log2FoldChange (BAALC-AS1 (ENSG00000247081)) was −0.5946. The log2FoldChange (BEX5 (ENSG00000184515)) was 1.778, the log2FoldChange (BHLHB9 (ENSG00000198908)) was −0.6347 and the log2FoldChange (BIRC7 (ENSG00000101197)) was 1.54. For the same sequence, the log2FoldChange (BVES (ENSG00000112276)) was −0.7008, the log2FoldChange (C1orf21 (ENSG00000116667)) was −0.5945 and the log2FoldChange (C1orf116 (ENSG00000182795)) was 1.382. It also gave a log2FoldChange (C3 (ENSG00000125730)) of −0.6635, a log2FoldChange (C5 (ENSG00000106804)) of −0.69 and a log2FoldChange (C7orf57 (ENSG00000164746)) of 1.917. It also gave a log2FoldChange (C7orf69 (ENSG00000136275)) of −0.6813, a log2FoldChange (C10orf55 (ENSG00000222047)) of 2.331 and a log2FoldChange (C10orf90 (ENSG00000154493)) of −0.626. The log2FoldChange (C11orf86 (ENSG00000173237)) was 1.233, the log2FoldChange (C15orf54 (ENSG00000175746)) was 1.489 and the log2FoldChange (C16orf45 (ENSG00000166780)) was −0.6742. It also gave a log2FoldChange (CACNA1D (ENSG00000157388)) of −0.6311, a log2FoldChange (CACNA1H (ENSG00000196557)) of 1.733 and a log2FoldChange (CALB2 (ENSG00000172137)) of 1.839. The log2FoldChange (CARMIL1 (ENSG00000079691)) was −0.6828, the log2FoldChange (CASC9 (ENSG00000249395)) was −0.6279 and the log2FoldChange (CASTOR3 (ENSG00000239521)) was −0.6683.
